Results taken from article PMC5428509, “Irreversible inhibition of BTK kinase by a novel highly selective inhibitor CHMFL-BTK-11 suppresses inflammatory response in rheumatoid arthritis model” (Scientific Reports, 2017).

Tests used:
Assay in all cases: biochemical
Design in all cases: KinomeScan competition binding panel (DiscoveRx), percent of control at 1 uM
Conditions in all cases: read-out: Percent Control
[1] = target: CSNK1G3 (Homo sapiens, UniProt Q9Y6M4)
In short: (§1)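 Selectivity profiled across 456 kinases/mutants by KinomeScan binding technology.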

[2] = target: PIK3CA(C420R) (Homo sapiens, UniProt P42336, C420R)
In short: as §1

[3] = target: PRKD1 (Homo sapiens, UniProt Q15139)
In short: as §1

[4] = target: KIT(V559D,V654A) (Homo sapiens, UniProt P10721, V559D/V654A)
In short: as §1

[5] = target: LATS1 (Homo sapiens, UniProt O95835)
In short: as §1

[6] = target: T1, RPS6KA4(Kin.Dom.2-C-terminal) (Homo sapiens, UniProt O75676)
T1 construct: Kin.Dom.2-C-terminal
In short: as §1

[7] = target: T2, RPS6KA4(Kin.Dom.1-N-terminal) (Homo sapiens, UniProt O75676)
T2 construct: Kin.Dom.1-N-terminal
In short: as §1

[8] = target: T3, CDK4-cyclinD1 (Homo sapiens, UniProt P11802)
T3 construct: cyclinD1
In short: as §1

[9] = target: T4, p38-delta (Homo sapiens, UniProt O15264)
T4 construct: gene MAPK13
In short: as §1

[10] = target: MAP4K4 (Homo sapiens, UniProt O95819)
In short: as §1

[11] = target: RAF1 (Homo sapiens, UniProt P04049)
In short: as §1

[12] = target: GAK (Homo sapiens, UniProt O14976)
In short: as §1

[13] = target: T5, NIK (Homo sapiens, UniProt Q99558)
T5 construct: gene MAP3K14
In short: as §1

[14] = target: FGFR1 (Homo sapiens, UniProt P11362)
In short: as §1

[15] = target: INSR (Homo sapiens, UniProt P06213)
In short: as §1

[16] = target: NEK2 (Homo sapiens, UniProt P51955)
In short: as §1

[17] = target: DAPK1 (Homo sapiens, UniProt P53355)
In short: as §1

[18] = target: FLT4 (Homo sapiens, UniProt P35916)
In short: as §1

[19] = target: T6, GCN2(Kin.Dom.2,S808G) (Homo sapiens, UniProt Q9P2K8, S808G)
T6 construct: gene EIF2AK4; Kin.Dom.2
In short: as §1

[20] = target: STK39 (Homo sapiens, UniProt Q9UEW8)
In short: as §1

[21] = target: T7, ABL1(Y253F)-phosphorylated (Homo sapiens, UniProt P00519, Y253F)
T7 construct: phosphorylated
In short: as §1

[22] = target: CDK5 (Homo sapiens, UniProt Q00535)
In short: as §1

[23] = target: BRSK1 (Homo sapiens, UniProt Q8TDC3)
In short: as §1

[24] = target: EGFR(S752-I759del) (Homo sapiens, UniProt P00533, DEL752-759)
In short: as §1

GAK, sequence (O14976 whole entry): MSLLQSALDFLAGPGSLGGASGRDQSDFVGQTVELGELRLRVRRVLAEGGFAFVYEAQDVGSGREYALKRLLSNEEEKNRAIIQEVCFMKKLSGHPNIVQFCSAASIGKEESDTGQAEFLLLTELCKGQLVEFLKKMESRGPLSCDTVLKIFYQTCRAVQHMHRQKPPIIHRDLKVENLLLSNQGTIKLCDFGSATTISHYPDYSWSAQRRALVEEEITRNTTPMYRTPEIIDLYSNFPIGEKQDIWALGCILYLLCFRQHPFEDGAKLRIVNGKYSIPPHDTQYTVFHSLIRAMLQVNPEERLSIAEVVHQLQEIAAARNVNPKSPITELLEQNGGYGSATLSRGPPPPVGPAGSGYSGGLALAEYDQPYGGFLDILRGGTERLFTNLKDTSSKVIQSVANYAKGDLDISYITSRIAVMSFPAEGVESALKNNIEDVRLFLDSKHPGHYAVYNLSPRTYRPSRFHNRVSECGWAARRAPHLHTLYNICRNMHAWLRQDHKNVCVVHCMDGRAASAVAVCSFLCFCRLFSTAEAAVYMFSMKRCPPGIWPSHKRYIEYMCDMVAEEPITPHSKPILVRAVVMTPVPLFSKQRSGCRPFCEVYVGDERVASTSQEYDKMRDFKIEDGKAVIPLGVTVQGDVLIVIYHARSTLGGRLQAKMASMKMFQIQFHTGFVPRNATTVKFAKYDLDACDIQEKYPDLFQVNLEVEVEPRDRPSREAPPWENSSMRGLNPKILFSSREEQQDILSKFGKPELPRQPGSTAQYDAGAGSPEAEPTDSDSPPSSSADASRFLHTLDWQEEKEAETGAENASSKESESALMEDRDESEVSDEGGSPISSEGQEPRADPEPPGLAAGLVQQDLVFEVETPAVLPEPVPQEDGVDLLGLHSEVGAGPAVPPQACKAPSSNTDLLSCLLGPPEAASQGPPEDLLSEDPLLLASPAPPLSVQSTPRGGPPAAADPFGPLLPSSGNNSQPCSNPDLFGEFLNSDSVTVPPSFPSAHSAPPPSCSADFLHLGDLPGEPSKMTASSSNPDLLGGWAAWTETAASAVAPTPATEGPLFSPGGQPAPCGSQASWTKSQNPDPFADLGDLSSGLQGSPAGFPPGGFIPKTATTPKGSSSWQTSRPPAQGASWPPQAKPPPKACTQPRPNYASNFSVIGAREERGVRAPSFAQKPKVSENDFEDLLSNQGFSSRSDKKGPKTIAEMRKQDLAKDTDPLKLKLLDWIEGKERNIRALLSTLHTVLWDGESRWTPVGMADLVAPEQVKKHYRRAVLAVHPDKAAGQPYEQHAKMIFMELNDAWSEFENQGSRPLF
T4 sequence (O15264 whole entry): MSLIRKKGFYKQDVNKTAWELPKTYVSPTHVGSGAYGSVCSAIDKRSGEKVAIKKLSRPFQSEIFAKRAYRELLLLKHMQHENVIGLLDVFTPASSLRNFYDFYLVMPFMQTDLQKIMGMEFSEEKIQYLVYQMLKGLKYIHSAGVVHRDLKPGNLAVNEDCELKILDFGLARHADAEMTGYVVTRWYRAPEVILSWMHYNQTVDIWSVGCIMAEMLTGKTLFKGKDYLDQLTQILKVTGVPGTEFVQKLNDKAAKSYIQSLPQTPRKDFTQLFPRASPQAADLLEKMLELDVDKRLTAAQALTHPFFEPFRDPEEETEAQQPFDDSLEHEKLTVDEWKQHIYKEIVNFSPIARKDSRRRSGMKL
KIT(V559D,V654A), sequence (P10721 whole entry V559D/V654A): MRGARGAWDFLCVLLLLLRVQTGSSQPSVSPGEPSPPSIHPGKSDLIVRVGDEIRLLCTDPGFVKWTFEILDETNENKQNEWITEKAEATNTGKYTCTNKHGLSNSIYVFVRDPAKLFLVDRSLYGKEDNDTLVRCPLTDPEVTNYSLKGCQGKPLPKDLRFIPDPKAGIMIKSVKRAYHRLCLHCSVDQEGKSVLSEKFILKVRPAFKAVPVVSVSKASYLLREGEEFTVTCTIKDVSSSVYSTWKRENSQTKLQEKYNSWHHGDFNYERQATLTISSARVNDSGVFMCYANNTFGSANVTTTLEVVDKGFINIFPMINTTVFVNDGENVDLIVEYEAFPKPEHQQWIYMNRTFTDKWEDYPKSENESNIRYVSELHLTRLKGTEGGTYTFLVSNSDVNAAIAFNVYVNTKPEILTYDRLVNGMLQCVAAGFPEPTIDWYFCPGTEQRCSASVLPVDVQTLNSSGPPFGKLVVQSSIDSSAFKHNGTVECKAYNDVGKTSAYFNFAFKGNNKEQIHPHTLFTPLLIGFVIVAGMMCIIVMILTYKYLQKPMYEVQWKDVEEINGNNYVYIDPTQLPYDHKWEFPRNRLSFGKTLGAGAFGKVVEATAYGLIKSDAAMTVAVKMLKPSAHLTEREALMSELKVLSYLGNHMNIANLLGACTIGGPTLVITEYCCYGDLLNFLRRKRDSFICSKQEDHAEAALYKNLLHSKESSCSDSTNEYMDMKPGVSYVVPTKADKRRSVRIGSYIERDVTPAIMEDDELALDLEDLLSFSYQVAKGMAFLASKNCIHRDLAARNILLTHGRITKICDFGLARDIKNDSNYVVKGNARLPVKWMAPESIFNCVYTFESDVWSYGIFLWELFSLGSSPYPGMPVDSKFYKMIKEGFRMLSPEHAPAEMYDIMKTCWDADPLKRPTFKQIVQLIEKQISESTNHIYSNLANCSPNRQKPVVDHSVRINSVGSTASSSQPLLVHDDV
CDK5, sequence (Q00535 whole entry): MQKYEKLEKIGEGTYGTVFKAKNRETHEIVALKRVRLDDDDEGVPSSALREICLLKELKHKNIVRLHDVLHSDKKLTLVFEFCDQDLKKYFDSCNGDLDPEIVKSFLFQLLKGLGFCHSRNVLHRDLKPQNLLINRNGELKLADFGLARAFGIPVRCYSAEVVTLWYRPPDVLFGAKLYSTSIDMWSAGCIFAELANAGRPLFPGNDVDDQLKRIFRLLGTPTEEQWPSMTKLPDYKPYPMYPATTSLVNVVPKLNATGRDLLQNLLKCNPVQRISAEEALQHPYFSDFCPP
T3 sequence (P11802 whole entry): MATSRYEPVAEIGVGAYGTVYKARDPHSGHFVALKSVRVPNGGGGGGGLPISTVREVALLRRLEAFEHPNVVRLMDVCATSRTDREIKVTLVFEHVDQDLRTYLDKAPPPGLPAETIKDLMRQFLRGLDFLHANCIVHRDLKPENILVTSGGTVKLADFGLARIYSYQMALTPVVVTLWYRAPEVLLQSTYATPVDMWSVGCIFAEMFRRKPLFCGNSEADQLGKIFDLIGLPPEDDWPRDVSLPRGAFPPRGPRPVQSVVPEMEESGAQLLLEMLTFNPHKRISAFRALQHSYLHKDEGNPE
T3 sequence (P24385 whole entry partner): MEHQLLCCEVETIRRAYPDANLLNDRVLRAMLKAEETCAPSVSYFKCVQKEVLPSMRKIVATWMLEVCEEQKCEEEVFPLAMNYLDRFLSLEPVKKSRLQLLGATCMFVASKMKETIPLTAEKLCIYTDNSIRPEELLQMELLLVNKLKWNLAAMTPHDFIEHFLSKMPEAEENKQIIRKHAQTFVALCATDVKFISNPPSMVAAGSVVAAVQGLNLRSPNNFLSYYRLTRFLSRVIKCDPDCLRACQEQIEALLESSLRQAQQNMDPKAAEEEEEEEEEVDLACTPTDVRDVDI
LATS1, sequence (O95835 whole entry): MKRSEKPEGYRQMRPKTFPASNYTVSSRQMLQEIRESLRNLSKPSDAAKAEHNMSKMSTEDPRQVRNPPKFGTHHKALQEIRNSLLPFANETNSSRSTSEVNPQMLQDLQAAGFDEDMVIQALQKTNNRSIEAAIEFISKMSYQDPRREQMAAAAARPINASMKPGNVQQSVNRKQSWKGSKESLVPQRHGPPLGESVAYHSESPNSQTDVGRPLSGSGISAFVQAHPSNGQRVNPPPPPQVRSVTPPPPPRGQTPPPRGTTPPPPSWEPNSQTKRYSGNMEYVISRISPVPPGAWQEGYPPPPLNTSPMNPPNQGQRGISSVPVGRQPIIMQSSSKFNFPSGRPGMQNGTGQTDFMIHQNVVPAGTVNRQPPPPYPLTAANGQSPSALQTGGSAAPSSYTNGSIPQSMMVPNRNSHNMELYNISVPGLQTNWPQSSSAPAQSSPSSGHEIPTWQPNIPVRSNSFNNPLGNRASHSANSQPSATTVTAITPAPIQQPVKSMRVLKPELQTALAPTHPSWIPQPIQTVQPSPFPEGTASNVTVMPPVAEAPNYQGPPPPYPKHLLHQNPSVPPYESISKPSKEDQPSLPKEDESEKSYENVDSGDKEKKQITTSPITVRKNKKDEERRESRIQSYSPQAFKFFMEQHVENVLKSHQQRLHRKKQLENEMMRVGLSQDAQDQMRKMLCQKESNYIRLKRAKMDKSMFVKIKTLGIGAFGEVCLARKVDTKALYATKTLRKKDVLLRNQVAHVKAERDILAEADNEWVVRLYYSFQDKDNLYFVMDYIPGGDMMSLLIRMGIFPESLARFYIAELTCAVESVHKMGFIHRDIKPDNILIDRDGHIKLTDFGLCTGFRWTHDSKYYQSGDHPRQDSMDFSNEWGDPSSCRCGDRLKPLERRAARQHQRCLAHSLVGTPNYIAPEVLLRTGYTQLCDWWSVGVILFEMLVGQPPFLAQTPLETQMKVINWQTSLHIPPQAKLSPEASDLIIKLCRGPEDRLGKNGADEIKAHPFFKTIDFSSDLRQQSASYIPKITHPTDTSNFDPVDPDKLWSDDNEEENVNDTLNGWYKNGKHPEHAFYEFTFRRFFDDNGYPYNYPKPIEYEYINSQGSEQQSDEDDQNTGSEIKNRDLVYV

## C=CC(=O)Nc1cc(-n2c(=O)ccc3cnc4ccc(-n5cccn5)cc4c32)ccc1C [CHMFL-BTK-11]
[1]
  remaining binding at 1 µM: 100%
[2]
  remaining binding at 1 µM: 74%
[3]
  remaining binding at 1 µM: 94%
[4]
  remaining binding at 1 µM: 100%
[5]
  remaining binding at 1 µM: 99%
[6]
  remaining binding at 1 µM: 100%
[7]
  remaining binding at 1 µM: 100%
[8]
  remaining binding at 1 µM: 97%
[9]
  remaining binding at 1 µM: 96%
[10]
  remaining binding at 1 µM: 97%
[11]
  remaining binding at 1 µM: 100%
[12]
  remaining binding at 1 µM: 100%
[13]
  remaining binding at 1 µM: 100%
[14]
  remaining binding at 1 µM: 88%
[15]
  remaining binding at 1 µM: 82%
[16]
  remaining binding at 1 µM: 100%
[17]
  remaining binding at 1 µM: 100%
[18]
  remaining binding at 1 µM: 100%
[19]
  remaining binding at 1 µM: 100%
[20]
  remaining binding at 1 µM: 72%
[21]
  remaining binding at 1 µM: 89%
[22]
  remaining binding at 1 µM: 100%
[23]
  remaining binding at 1 µM: 100%
[24]
  remaining binding at 1 µM: 58%
